Values after ≈ are worked out from the molar mass of the structure shown. Like-named read-outs stand apart in the source and are kept apart here.
Columns and labels:
CYP3A4 = target: T1, CYP3A4 (Homo sapiens, UniProt P08684); test: HEK293/CYP3A4 assay of Nrf2 stabilization and CYP3A4 degradation; assay type: cell-based; conditions: HEK293 cells with inducible CYP3A4, Western blot
T1 construct: expressed in transfected cells; host or cells: HEK293 Flp-In host cell line (Invitrogen/ThermoFisher Flp-In T-REx system)
T1 sequence (P08684 whole entry): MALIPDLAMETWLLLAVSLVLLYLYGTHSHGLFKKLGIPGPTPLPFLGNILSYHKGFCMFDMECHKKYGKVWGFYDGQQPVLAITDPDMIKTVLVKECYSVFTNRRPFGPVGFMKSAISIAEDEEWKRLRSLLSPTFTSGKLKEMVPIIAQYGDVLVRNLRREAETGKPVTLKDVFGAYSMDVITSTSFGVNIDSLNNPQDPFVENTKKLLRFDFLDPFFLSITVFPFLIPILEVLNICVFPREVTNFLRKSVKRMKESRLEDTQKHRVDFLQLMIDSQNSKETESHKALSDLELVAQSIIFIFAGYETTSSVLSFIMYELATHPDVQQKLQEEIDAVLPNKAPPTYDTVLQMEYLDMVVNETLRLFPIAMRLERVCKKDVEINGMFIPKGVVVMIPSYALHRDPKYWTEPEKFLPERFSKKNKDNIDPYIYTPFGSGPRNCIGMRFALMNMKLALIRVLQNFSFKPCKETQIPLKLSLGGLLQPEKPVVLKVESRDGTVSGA
From the text: Specifically, these assays evaluated the potential of the 3 different CGRP receptor antagonists to form reactive metabolites that promote the stabilization of Nrf2 or covalently bind to CYP3A4, triggering its subsequent time-dependent degradation, as assessed by Western blot. To seek further confirmatory evidence for reactive metabolite formation, a HEK293 cell line expressing doxycycline inducible CYP3A4 P450 enzyme expression construct with a Flag tag epitope fused to the C-terminus was constructed and cloned using the Invitrogen/ThermoFisher Scientific Flp-In T-TEx system and the HEK293 Flp-In host cell line per standard protocol. […] Alternatively, this simplified single CYP test model might not allow for Nrf2 stabilization if sufficient quantities of the chemically reactive metabolite cannot be generated by CYP3A4, or cannot escape the catalytic site of CYP3A4, which would appear on Western blot using anti-Flag antibody as time-dependent CYP3A4 degradation.

HepG2 cells = test: Seahorse cellular respiration assay (OCR); assay type: cell-based, human
Procedure: Identical parallel cultures were established to test for an effect on cytotoxicity via cellular ATP content. […]. Importantly, the 1-hour culture was conducted in the absence of serum (i.e., no serum protein binding) as is standard for the Seahorse Analyzer assay conditions. However, the 24-hour culture was too long for robust cell culture in the absence of serum. Serum was present up to 1 hour before the assay, when cell culture media was exchanged for the standard assay media. Three independent studies were conducted in duplicate.
To assess the potential mitochondrial liabilities of ubrogepant, cellular respiration assays using a Seahorse XFe96 Flux Analyzer were conducted by Cyprotex (Macclesfield, UK). HepG2 cells were incubated with ubrogepant at concentrations ranging from 0.1 – 125 μM for 1 or 24 hours and tested for an effect on cellular respiration as measured by the oxygen consumption rate (OCR). Three independent studies were conducted in duplicate. Importantly, the 1-hour culture was conducted in the absence of serum (i.e., no serum protein binding) as is standard for the Seahorse Analyzer assay conditions. However, the 24-hour culture was too long for robust cell culture in the absence of serum. Serum was present up to 1 hour before the assay, when cell culture media was exchanged for the standard assay media. The measured OCR was corrected for the relative amounts of viable cells that contributed to the measured OCR, removing the possible interpretation of OCR reductions as being due to cell loss.
To assess the potential mitochondrial liabilities of MK-3207, cellular respiration assays using a Seahorse XFe96 Flux Analyzer were conducted by Cyprotex (Macclesfield, UK). HepG2 cells were incubated with MK-3207 at concentrations ranging from 0.01 – 75 μM for 1 or 24 hours and tested for an effect on cellular respiration as measured by the OCR. Three independent studies were conducted in duplicate. Importantly, the 1-hour culture was conducted in the absence of serum (i.e., no serum protein binding) as is standard for the Seahorse Analyzer assay conditions. However, the 24-hour culture was too long for robust cell culture in the absence of serum. Serum was present up to 1 hour before the assay, when cell culture media was exchanged for the standard assay media. Intracellular MK-3207 concentrations were also assessed in identical duplicate HepG2 cultures. The measured OCR was corrected for the relative amounts of viable cells that contributed to the measured OCR, removing the possible interpretation of OCR reductions as being due to cell loss; the process for this was the same as that described above for ubrogepant.

[1] = Compound solubility limit in transporter assay buffer; assay type: physicochemical; conditions: read-out: upper limit of compound solubility
Procedure: To assess the functional impact of ubrogepant on the human ABC efflux transporters BSEP, MRP3, and MRP4, in vitro vesicular transport inhibition assays were conducted by Solvo Biotechnology (Szeged, Hungary). The ability of ubrogepant to inhibit the BSEP-mediated transport (and accumulation) of a probe substrate was tested at concentrations ranging from 0.04 – 30 μM, where the latter defined the upper limit of compound solubility in the BSEP assay buffer. For the MRP3 and MRP4 vesicle-based transporter assessments, ubrogepant concentrations of 0.1 to 70 μM were used. To assess the functional impact of ubrogepant on the human SLC (uptake) transporter NTCP, in vitro experiments were performed using HEK293 cells stably expressing NTCP. The ability of ubrogepant to inhibit NTCP-mediated uptake (and accumulation) of taurocholate was tested at concentrations ranging from 0.04 – 30 μM.
To assess the functional impact of MK-3207 on the human ABC efflux transporters BSEP, MRP3 and MRP4, in vitro vesicular transport inhibition assays were conducted by Solvo Biotechnology (Szeged, Hungary) and overseen by DSSI. BSEP transport was assessed in the presence of 0.5-30 µM MK-3207; MRP3 and MRP4 transport was assessed in the presence of 0.11-80 µM MK-3207. The upper limits of these ranges were determined by compound solubility in each assay buffer. NTCP transporter inhibition was assessed in NTCP-expressing HEK293 cells in the presence of 0.03 – 25 µM MK-3207.

RNS/ROS production = test: DILIsym fit of ROS data (oxidative stress parameter); set-up: species or system human; conditions: fit of 24-hour HepG2 ROS data
From the text: Parameter values for telcagepant-mediated induction of oxidative stress were identified by simulating the experimental data in DILIsym® using a DILIsym® dosing scheme meant to represent in vitro conditions.
Parameter values for ubrogepant-mediated induction of oxidative stress were identified by simulating the experimental data in DILIsym using a DILIsym drug exposure scheme designed to represent in vitro conditions.
Parameter values for MK-3207-mediated induction of oxidative stress were identified by simulating the experimental data in DILIsym using a DILIsym drug exposure scheme meant to represent in vitro conditions. Intracellular compound concentrations were also assayed in identical cell cultures; the experimental method was the same as that described above for ubrogepant.

human hepatocytes = test: Covalent protein binding in human hepatocytes / reactive metabolite body burden; assay type: in vitro ADME; conditions: for Projected body burden from covalent-binding studies: covalent protein binding × dose, telcagepant 560 mg, MK-3207 80 mg, ubrogepant 200 mg; for covalent protein binding: radioactivity bound in human hepatocytes
Procedure: The “body burden” is a quantitative estimate of reactive metabolite exposure that was determined for each drug based on in vitro covalent protein binding of radioactivity in human hepatocytes (in pmol equivalents/mg) multiplied by a clinically effective daily dose (in mg/day). Detailed methods used in the in vitro human hepatocyte covalent-binding experiments have been reported by [Nakayama et al. (2009)].

monkeys = test: Conventional nonclinical toxicology study, NHP; conditions: 9M NHP
Procedure: (§1) Conventional animal toxicology studies in rats and monkeys were performed by Merck & Co, Inc (West Point, Pennsylvania).

rats = test: Conventional nonclinical toxicology study, rat; assay type: in vivo
Procedure: as §1

[2] = HepG2, 1-hour incubation, no serum
[3] = MRP3 and MRP4 assay buffer, aqueous buffer

SMILES | formation of reactive metabolites that covalently bind to CYP3A4 and result in its degradation (CYP3A4) | effect on oxygen consumption rate (OCR) (HepG2 cells; [2]) | effect on oxygen consumption rate (OCR) (HepG2 cells; HepG2, 24-hour incubation) | solubility ([1]; BSEP assay buffer) | solubility [1, 3] | RNS/ROS production rate constant (RNS/ROS production) | Projected body burden from covalent-binding studies (human hepatocytes) | covalent protein binding (human hepatocytes) | Pivotal conventional nonclinical toxicology study liver findings (monkeys) | exposure margin (monkeys) | Pivotal conventional nonclinical toxicology study liver findings (rats; 6M rat) | exposure margin (rats; 6M rat) | solubility ([1]; BSEP assay buffer, aqueous buffer) | solubility ([1]; aqueous buffer, BSEP, MRP3, MRP4 vesicular transport assays) | Pivotal conventional nonclinical toxicology study liver findings (rats; 3M rat) | exposure margin (rats; 3M rat)
O=C(CN1C(=O)C2(CCCC2)NC[C@H]1c1cc(F)cc(F)c1)Nc1ccc2c(c1)C[C@@]1(C2)C(=O)Nc2ncccc21 [MK-3207] | formed reactive metabolites that covalently bind to CYP3A4 and result in its degradation | mildly inhibit cellular respiration | mildly inhibit cellular respiration | 30 µM (≈ 16.7 µg/mL) | 80 µM (≈ 44.6 µg/mL) | 0.00022 mL/nmol/h | 14 720 | 184 pmol equivalents/mg | no liver safety signal | 4 × | no liver safety signal | 25 × | – | – | – | –
C[C@@H]1[C@H](c2ccccc2)C[C@H](NC(=O)c2cnc3c(c2)C[C@@]2(C3)C(=O)Nc3ncccc32)C(=O)N1CC(F)(F)F [Ubrogepant] | did not | not after a 1-hour incubation | inhibit the HepG2 OCR in a dose-dependent manner | – | 70 µM (≈ 38.5 µg/mL) | 0.00016 mL/nmol/h | 4600 | 23 pmol equivalents/mg | no liver safety signal | 163 × | < 2× ALT with no liver histopathology | 70 × | 30 µM (≈ 16.5 µg/mL) | – | – | –
O=C(N[C@@H]1CC[C@@H](c2cccc(F)c2F)CN(CC(F)(F)F)C1=O)N1CCC(n2c(=O)[nH]c3ncccc32)CC1 [Telcagepant] | did not | inhibit the HepG2 OCR in a dose-dependent manner | A similar OCR response | – | – | 20,000 mL/mol/hr | 14600 | 26 pmol equivalents/mg | no liver safety signal | 7 × | no liver safety signal | 7 × | – | 20 µM (≈ 11.3 µg/mL) | < 3× ALT/AST with no liver histopathology | 15 ×
